Results taken from patent US9951060B2, “2-acylaminothiazole derivative or salt thereof” (ASTELLAS PHARMA INC., priority 2014, dated 2018).

What was measured:
[1] = biological target: T1, human c-Mpl-introduced Ba/F3 cell (Homo sapiens, UniProt P40238); experiment: Test Example 2: human c-Mpl-introduced Ba/F3 cell proliferative activity; type: cell-based; details: concentration exhibiting 30% proliferation; 100% = positive control (Example 315 of Patent Document 1) at 1 μM
T1 construct: expressed in transfected cells
T1 sequence (P40238 26-635): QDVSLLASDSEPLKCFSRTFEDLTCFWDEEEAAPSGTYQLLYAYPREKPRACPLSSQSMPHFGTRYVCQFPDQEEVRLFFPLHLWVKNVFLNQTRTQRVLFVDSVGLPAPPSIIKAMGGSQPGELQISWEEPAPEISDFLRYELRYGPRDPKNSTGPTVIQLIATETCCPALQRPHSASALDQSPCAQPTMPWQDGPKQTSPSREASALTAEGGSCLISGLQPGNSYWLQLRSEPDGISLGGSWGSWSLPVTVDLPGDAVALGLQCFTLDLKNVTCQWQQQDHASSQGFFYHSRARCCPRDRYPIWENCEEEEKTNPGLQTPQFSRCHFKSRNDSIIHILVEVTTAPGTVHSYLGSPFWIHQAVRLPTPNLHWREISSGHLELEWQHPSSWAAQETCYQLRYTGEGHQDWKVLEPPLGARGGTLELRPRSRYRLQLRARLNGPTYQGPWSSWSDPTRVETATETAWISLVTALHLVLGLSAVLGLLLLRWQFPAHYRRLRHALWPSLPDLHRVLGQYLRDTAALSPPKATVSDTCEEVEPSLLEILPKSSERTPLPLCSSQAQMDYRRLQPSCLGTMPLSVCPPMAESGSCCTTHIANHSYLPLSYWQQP
Protocol: Test Example 2: Evaluation of Human c-Mpl-Introduced Ba/F3 Cell Proliferative Activity
The human c-Mpl-introduced Ba/F3 cell proliferation action was measured by the following method.
As a positive control, 1-(5-{[4-(4-chlorothiophen-2-yl)-5-{[(2R)-2-methylpyrrolidin-1-yl]methyl}-1,3-thiazol-2-yl]carbamoyl}-3-fluoropyridin-2-yl)piperidine-4-carboxylic acid hydrochloride disclosed as Example 315 in Patent Document 1, represented by the formula (A1) above, was used. Further, it is known that the compound has a good human c-Mpl-introduced Ba/F3 cell proliferative activity as disclosed in Table 1 in Patent Document 1.
a) Construction of Vector Expressing Human c-Mpl Receptor
A human c-Mpl receptor gene (GenBank Accession No.: M90102.1) was transfected into an expression vector pEF-BOS (Nucleic Acids Research, 18: pp 5322 (1990)).
b) Construction of Cell Stably Expressing Human c-Mpl Receptor
A vector expressing a human c-Mpl receptor was introduced into a Ba/F3 cell (RIKEN BRC: RCB0805). For the introduction, an electroporation method was used. pEF-BOS-c-mpl (10 μg), pSV2bsr (1 μg, Kaken Pharmaceutical Co., Ltd.) and 1×10^7 of Ba/F3 cells were put into cuvettes with a gap width of 0.4 cm and electroporated under a condition of 1.5 kV (25 μF) in a Gene Pulser (registered trademark) (BioRad). The cells were incubated in an RPMI-1640 medium supplemented with a 0.5% WEHI conditioned medium (BD Biosciences) and 10% fetal bovine serum for 3 days, and thereafter, and the cells were incubated for 30 days in an RPMI-1640 medium, to which 10 μg/mL blasticidin had been further added, thereby acquiring a drug-resistant clone.
c) Measurement of Cell Proliferative Activity
The cells obtained in b) above were dispensed into an RPMI-1640 medium supplemented with a 0.5% WEHI conditioned medium and 10% fetal bovine serum, and used. The day before the experiment, the test substances (final concentration of 100 nM to 10 μM) which had been dissolved in a medium for assay (an RPMI-1640 medium supplemented with 10% fetal bovine serum) were added to a 384-well plate (Model No. 781185, Greiner bio-one). The cells after the medium had been replaced with the medium for assay were dispensed to a 384-well plate to which the test substance had been added, to 1×10^4 cells/well, and incubated overnight at 37° C. and 5% CO2. On the experiment day, a solution of a Cell counting kit (Dojindo Laboratories) was added to each well of the 384-well plate, and the cells were incubated for about 5 hours at 37° C. and 5% CO2. Thereafter, the absorbance (an absorbance wavelength of 450 nm) of each well was measured using Safire^2 (registered trademark) (TECAN), and used as an index for the number of cells. Further, as a negative control, a well to which the test substances had not been added was prepared.
By taking the absorbance of the well to which the test substance had been not added as 0% and taking the absorbance in a case where the positive control had been added to a final concentration of 1 μM as 100%, a cell proliferation rate (%) was calculated from the absorbance of the well to which the test substance had been added.

[2] = biological target: human muscarinic M3 receptor (Homo sapiens, UniProt P20309)
Sequence of human muscarinic M3 receptor (P20309 whole entry): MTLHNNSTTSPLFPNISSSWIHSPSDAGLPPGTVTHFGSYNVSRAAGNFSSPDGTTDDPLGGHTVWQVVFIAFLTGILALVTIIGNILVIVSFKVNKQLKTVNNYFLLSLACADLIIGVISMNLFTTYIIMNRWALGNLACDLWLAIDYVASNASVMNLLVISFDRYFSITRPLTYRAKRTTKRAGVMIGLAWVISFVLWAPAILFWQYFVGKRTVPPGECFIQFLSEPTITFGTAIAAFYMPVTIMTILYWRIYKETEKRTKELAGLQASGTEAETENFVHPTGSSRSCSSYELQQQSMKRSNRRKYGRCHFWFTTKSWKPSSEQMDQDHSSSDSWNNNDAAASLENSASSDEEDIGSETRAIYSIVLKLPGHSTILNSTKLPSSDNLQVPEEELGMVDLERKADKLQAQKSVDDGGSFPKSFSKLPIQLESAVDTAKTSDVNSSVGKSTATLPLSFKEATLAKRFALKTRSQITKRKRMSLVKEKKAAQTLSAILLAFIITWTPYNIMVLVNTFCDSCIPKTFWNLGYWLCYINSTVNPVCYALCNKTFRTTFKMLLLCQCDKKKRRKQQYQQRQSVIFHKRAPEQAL

SMILES	human c-Mpl-introduced Ba/F3 cell proliferative activity EC30 [1] [µM]	muscarinic M3 receptor-positive allosteric modulator activity, 1 μM (-fold shift) [2]	muscarinic M3 receptor-positive allosteric modulator activity, 10 μM (-fold shift) [2]
C[C@@H]1CCCN1Cc1sc(NC(=O)c2cnc(N3CCN(CCC(=O)O)CC3)cn2)nc1-c1cc(Br)cs1 [Example 97]	2.8	55 -fold shift	121 -fold shift
CCOc1ccc(-c2nc(NC(=O)c3cnc(N4CCN(CCC(=O)O)CC4)cn3)sc2CN2CCC[C@H]2C)cc1C(F)(F)F [Example 54]	>10	36 -fold shift	134 -fold shift
CC[C@@H]1CCCN1Cc1sc(NC(=O)c2cnc(N3CCN(CCC(=O)O)[C@@H](C)C3)cn2)nc1-c1cc(Cl)cs1 [Example 81]	0.5	89 -fold shift	94 -fold shift
C[C@@H]1CCCN1Cc1sc(NC(=O)c2cnc(N3CCN(CCC(=O)O)C[C@H]3C)cn2)nc1-c1cc(Br)cs1 [Example 101]	2.7	64 -fold shift	112 -fold shift
Cc1cc(-c2nc(NC(=O)c3cnc(N4CCN(CC(=O)O)CC4)cn3)sc2CN2CCC[C@H]2C)cc(C(F)(F)F)c1 [Example 71]	>10	28 -fold shift	151 -fold shift
COc1ncc(-c2nc(NC(=O)c3cnc(N4CCN(CCC(=O)O)CC4)cn3)sc2CN2CCC[C@H]2C)cc1C(F)(F)F [Example 33]	>10	40 -fold shift	182 -fold shift
C[C@@H]1CCCN1Cc1sc(NC(=O)c2cnc(N3CCN(CCC(=O)O)CC3)cn2)nc1-c1ccc(C2CC2)c(C(F)(F)F)c1 [Example 63]	>10	39 -fold shift	186 -fold shift
C[C@@H]1CCCN1Cc1sc(NC(=O)c2cnc(N3CCN(CCC(=O)O)C[C@@H]3C)cn2)nc1-c1cc(C(F)(F)F)cs1 [Example 100]	3.2	82 -fold shift	229 -fold shift
C[C@@H]1CN(c2cnc(C(=O)Nc3nc(-c4cc(Cl)cs4)c(CN4CCC[C@H]4C)s3)cn2)CCN1CCC(=O)O [Example 79]	1.8	60 -fold shift	171 -fold shift
CC[C@@H]1CCCN1Cc1sc(NC(=O)c2cnc(N3CCN(CC(=O)O)CC3)cn2)nc1-c1ccc(OC)c(C(F)(F)F)c1 [Example 41]	>10	43 -fold shift	160 -fold shift
CC(C(=O)O)N1CCN(c2cnc(C(=O)Nc3nc(-c4cc(Cl)cc(C(F)(F)F)c4)c(CN4CCC[C@H]4C)s3)cn2)CC1 (stereo partly drawn) [Example 12]	>10	33 -fold shift	178 -fold shift
C[C@@H]1CCCN1Cc1sc(NC(=O)c2cnc(N3CCN(CCC(=O)O)C[C@@H]3C)cn2)nc1-c1cc(F)cc(C(F)(F)F)c1 [Example 17]	>10	15 -fold shift	109 -fold shift
C[C@@H]1CCCN1Cc1sc(NC(=O)c2cnc(N3CCN(CCC(=O)O)CC3)cn2)nc1-c1cc(Br)cc(C(F)(F)F)c1 [Example 27]	>10	31 -fold shift	330 -fold shift

Further lines, results first:

human c-Mpl-introduced Ba/F3 cell proliferative activity EC30 [1] [µM]	muscarinic M3 receptor-positive allosteric modulator activity, 1 μM (-fold shift) [2]	muscarinic M3 receptor-positive allosteric modulator activity, 10 μM (-fold shift) [2]	SMILES
>10	79 -fold shift	318 -fold shift	C[C@@H]1CC[C@@H](C)N1Cc1sc(NC(=O)c2cnc(N3CCN(CCC(=O)O)[C@@H](C)C3)cn2)nc1-c1cc(Cl)cs1 [Example 126]
>10	95 -fold shift	151 -fold shift	C[C@@H]1CN(c2cnc(C(=O)Nc3nc(-c4cc(Cl)cs4)c(CN(C)CC4CC4)s3)cn2)CCN1CCC(=O)O [Example 130]
>10	73 -fold shift	318 -fold shift	CC(C)CN(C)Cc1sc(NC(=O)c2cnc(N3CCN(CCC(=O)O)CC3)cn2)nc1-c1cc(F)cc(C(F)(F)F)c1 [Example 107]
8	73 -fold shift	192 -fold shift	C[C@H]1CN(c2cnc(C(=O)Nc3nc(-c4cc(Cl)cs4)c(CN(C)CC4CC4)s3)cn2)CCN1CCC(=O)O [Example 128]
>10	57 -fold shift	167 -fold shift	CCN(CC)Cc1sc(NC(=O)c2cnc(N3CCN(CC(=O)O)C[C@H]3C)cn2)nc1-c1cc(F)cc(C(F)(F)F)c1 [Example 118]
1.7	202 -fold shift	307 -fold shift	C[C@@H]1CCCN1Cc1sc(NC(=O)c2cnc(N3CCN(CC(=O)O)CC3)cn2)nc1-c1cc(C(F)(F)F)cs1 [Example 103]
>10	15 -fold shift	41 -fold shift	C[C@@H]1CCCN1Cc1sc(NC(=O)c2cnc(N3CCN(CCC(=O)O)CC3)cn2)nc1-c1cc2ccccc2s1 [Example 132]
>10	41 -fold shift	270 -fold shift	CCN(Cc1sc(NC(=O)c2cnc(N3CCN(CCC(=O)O)CC3)cn2)nc1-c1cc(F)cc(C(F)(F)F)c1)C(C)C [Example 106]
